Key:
NMRI mice = assay: Acute toxicity study in NMRI mice; format: in vivo; settings: 10 mg i.v. bolus, NMRI mice 20 g (500 mg/kg body weight)
adenylate cyclase = settings: in vitro
From the text: The metabolic effects of glucagon1-21, glucagon1-26 and des(22-26)-glucagon, as exemplified by their lipolytic effect on rat free fat cells in vitro and their effect on the activation of the adenylate cyclase in vitro, are negligible compared with the metabolic effects of glucagon.

[1] = system: electrically stimulated guinea pig ileum; assay: Contractions of the electrically stimulated guinea pig ileum in vitro; format: cell-based
From the text: 10^-5 M glucagon caused 83±4% (X±sd, N=3) ihibition compared to 78±5% for glucagon1-21. The effects of 10^-6 M was 50±3% and 52±5%, respectively, and of 10^-7 M: 27±3% for either peptide.

rats = assay: Metabolic effects (hyperglycemia, insulin release) after administration to rats in vivo; parameters: species or system rat
rat free fat cells = assay: Lipolytic effect on rat free fat cells in vitro; format: cell-based
gall flow in rats = assay: Gall flow in rats in vivo; parameters: species or system rat
[2] = system: pentagastrin stimulated gastric acid secretion in gastric fistula cats; assay: Pentagastrin stimulated gastric acid secretion in cats with chronic gastric fistulas; format: in vivo, cat
Description: 1 μg/kg pentagastrin subcutaneously administered to gastric fistula cats caused an increase in gastic acid secretion of 856±71 μEq (Eq designates equivalent) acid (X±S.E.M., N=18). When 2 μg/kg glucagon1-21 was administered subcutaneously at the same time as 1 μg/kg pentagastrin the increase in acid output was only 417±104 μEq acid (N=6).
In a male cat weighing approx. 4.5 kg equipped with a cronic gastric fistula the gastric acid secretion was stimulated with 4.5 μg pentagastrin (Peptavlon®) in a volume of 1 ml 0.9% saline containing 0.1% human serum albumin subcutaneously in the neck. In 8 experiments 1 ml placebo (0.9% saline with 0.1% human serum albumin) was administered subcutaneously through another cannula in the neck at the same time as the administration of pentagastrin. In 2 experiments 9 μg of glucagon1-21 in 1 ml of the above solution was administered simultaneously with the administration of pentagastrin. Gastric acid secretion was collected over periods of 15 minutes and titrated with 0.01N NaOH. The increase in acid secretion after the administration of pentagastrin was calculated as μEq acid excreted over 11/2 hrs. after the administration subtracting the basal acid secretion before administration of pentagastrin. After administration of 4.5 μg pentagastrin plus placebo the increase in gastric acid secretion was 729± 89 μEq acid (X±S.E.M., N=8). […]

[3] = system: intestinal motility in rabbits; assay: Intestinal motility in anaesthetized rabbits in vivo (spasmolytic effect, balloon in jejunum); parameters: species or system rabbit; settings: for spasmolytic effect: Experiment B, rabbit 2.32 kg
Description: One male rabbit weighing 2.56 kg was anaesthetized with nembutal after an overnight fast. The position of the balloon used for measurement of intestinal motility was 1 meter from pylorus in the jejunum. The motility was registered before and after intraveneous administration of 77 μg glucagon1-21 in 1 ml 0.9% saline containing 0.1% human serum albumin. […] The onset of effect was 1 minute after the administration and the duration of effect was 11 minutes.
A male rabbit weighing 2.32 kg was treated as described in Experiment A with the following dosages: […]

bile flow in rabbits = assay: Bile flow in rabbits with catheters in the bile duct; format: in vivo, rabbit; settings: for Amount of bile: 200 μg s.c. given after 45 minutes
Description: One rex rabbit weighing 2.0 kg was equipped with a catheter in the bile duct during nembutal anaesthesia on the day before the experiment. On the day of the experiment the bile was collected for periods of 15 minutes.
After 45 minutes 200 μg glucagon was administered subcutaneously in 1 ml of 0.9% saline containing 0.1% human serum albumin. After 120 minutes 154 μg glucagon1-21 was administered subcutaneously in 1 ml of the above solution. After 195 minutes the placebo (vide Experiment C) was administered.

[4] = system: rabbit gall bladder preparation; assay: Relaxation of submaximally contracted rabbit gall bladder preparation in vitro; format: cell-based
[5] = system: isolated perfused rat pancreas; assay: Insulin release from the isolated perfused rat pancreas; format: cell-based; settings: infused to the same concentration as glucagon
[6] = i.v. bolus, 100 to 200 μg glucagon or 77 to 154 μg glucagon1-21, anesthetized rabbits 2.5 to 3.0 kg

## CC(C)C[C@H](NC(=O)[C@H](Cc1ccc(O)cc1)NC(=O)[C@H](CCCCN)NC(=O)[C@H](CO)NC(=O)[C@H](Cc1ccc(O)cc1)NC(=O)[C@H](CC(=O)O)NC(=O)[C@H](CO)NC(=O)[C@@H](NC(=O)[C@H](Cc1ccccc1)NC(=O)[C@@H](NC(=O)CNC(=O)[C@H](CCC(N)=O)NC(=O)[C@H](CO)NC(=O)[C@@H](N)Cc1c[nH]cn1)[C@@H](C)O)[C@@H](C)O)C(=O)N[C@@H](CC(=O)O)C(=O)N[C@@H](CO)C(=O)N[C@@H](CCCNC(=N)N)C(=O)N[C@@H](CCCNC(=N)N)C(=O)N[C@@H](C)C(=O)N[C@@H](CCC(N)=O)C(=O)N[C@@H](CC(=O)O)C(=O)O [glucagon1-21, glucagon-(1-21)-heneicosapeptide]
NMRI mice
  deaths: No deaths occurred

## CC(C)C[C@H](NC(=O)[C@H](Cc1c[nH]c2ccccc12)NC(=O)[C@H](CCC(N)=O)NC(=O)[C@@H](NC(=O)[C@H](Cc1ccccc1)NC(=O)[C@H](CC(=O)O)NC(=O)[C@H](CCC(N)=O)NC(=O)[C@H](C)NC(=O)[C@H](CCCNC(=N)N)NC(=O)[C@H](CCCNC(=N)N)NC(=O)[C@H](CO)NC(=O)[C@H](CC(=O)O)NC(=O)[C@H](CC(C)C)NC(=O)[C@H](Cc1ccc(O)cc1)NC(=O)[C@H](CCCCN)NC(=O)[C@H](CO)NC(=O)[C@H](Cc1ccc(O)cc1)NC(=O)[C@H](CC(=O)O)NC(=O)[C@H](CO)NC(=O)[C@@H](NC(=O)[C@H](Cc1ccccc1)NC(=O)[C@@H](NC(=O)CNC(=O)[C@H](CCC(N)=O)NC(=O)[C@H](CO)NC(=O)[C@@H](N)Cc1c[nH]cn1)[C@@H](C)O)[C@@H](C)O)C(C)C)C(=O)O [glucagon1-26, glucagon-(1-26)-hexacosapeptide]
Adenylate cyclase
  effect on the activation of the adenylate cyclase (metabolic effect) compared with glucagon: negligible
[1]; electrically stimulated guinea pig ileum in vitro
  inhibitory effect on the amplitude of the contractions, potency compared with glucagon: almost the same potency as glucagon
rats
  metabolic effects after administration in vivo: No metabolic effects
Rat free fat cells
  lipolytic effect (metabolic effect) compared with glucagon: negligible

## glucagon
Gall flow in rats
  effect on gall flow: increase in gall flow
[1]; 10^-5 M, X±sd, N=3
  inhibition of contraction amplitude: 83±4%
[1]; 10^-6 M
  inhibition of contraction amplitude: 50±3%
[1]; 10^-7 M
  inhibition of contraction amplitude: 27±3%
[2]
  effect on pentagastrin stimulated gastric acid secretion: inhibit pentagastrin stimulated gastric acid secretion
[3]; 200 μg i.v.
  spasmolytic effect: no detectable effect
[3]; 400 μg
  spasmolytic effect: distinct effect
[3]; [6]
  duration of inhibition of intestinal motility: about ten
  onset of inhibition of intestinal motility after administration: one
Bile flow in rabbits; rabbits with catheters in the bile duct
  gall flow immediately after the administration: decrease in gall flow
Bile flow in rabbits; rabbits with catheters in the bile duct, after the initial decrease
  subsequent bile flow: increase in bile flow to quantities higher than before the administration
Bile flow in rabbits; sampling period 45-60 minutes, one rex rabbit 2.0 kg
  Amount of bile: 0.20 mL
Bile flow in rabbits; sampling period 60-75 minutes
  Amount of bile: 0.25 mL
Bile flow in rabbits; sampling period 75-90 minutes
  Amount of bile: 3.30 mL
Bile flow in rabbits; sampling period 90-105 minutes
  Amount of bile: 2.80 mL
Bile flow in rabbits; sampling period 105-120 minutes
  Amount of bile: 2.00 mL
[4]; 10^-6 M, strip contracted with 0.1 μg/ml cholecystochinin octapeptide
  relaxation of gall bladder strip: 39%
[4]; strip contracted with 0.1 μg/ml cholecystochinin octapeptide
  ED50 (relaxation of gall bladder strip): 2.7 µM
[4]; submaximally contracted rabbit gall bladder preparation in vitro
  relaxing effect on gall bladder preparation, relative potency: almost equipotent
[5]
  insulin release: releases insulin

— patent US4598065A, “Use of peptides as medicaments and certain novel peptides” (Novo Industri A/S, priority 1980, dated 1986)
